Measured values as given in patent US20250223307A1, “MDM2/MDMX DOUBLE-TARGET INHIBITOR COMPOUND, PRODRUG, PHARMACEUTICAL COMPOSITION, AND PREPARATION METHOD THEREFOR AND USE THEREOF” (GLOBAL HEALTH DRUG DISCOVERY INSTITUTE, priority 2022, published 2025).

Experiments:
[1] = tested on: Blood cancer cells RS4; 11; assay: CellTiter Glo test: growth inhibition of cells; type: cell-based; settings: Homo sapiens, 11 cells, 72 h, cell viability
Method: Test of Candidate Compounds on Growth Inhibition of Cells Determined by CellTiter Glo
Blood cancer cells RS4; 11 were inoculated into the 96-well cell culture plate through Multidrop 3000 cells per well, with a volume of 100 μL. The final compound concentration ranged from 50 μM to 0.01 μM at 9 concentration gradients and the DMSO final concentration was 0.1%. The cells and compounds were co-incubated in a cell incubator at 37° C. for 72 h, a CellTiter-Glo Luminescent Cell Viability Assay reagent was added 100 μL/well, the cells and compound were uniformly mixed and incubated at room temperature for 10 min, and Envision reading was performed. A sample treated with 50 μM of a positive compound was taken as a positive control and a sample treated with 100 nL of DMSO was taken as a negative control.

MDM2 = MDM2 (Homo sapiens, UniProt Q00987); assay: HTRF test: inhibition of MDM2-p53 protein binding
MDMX = target: T1, MDMX (Homo sapiens, UniProt O15151); assay: HTRF test: inhibition of MDMX-p53 protein binding
T1 sequence (O15151 2-134): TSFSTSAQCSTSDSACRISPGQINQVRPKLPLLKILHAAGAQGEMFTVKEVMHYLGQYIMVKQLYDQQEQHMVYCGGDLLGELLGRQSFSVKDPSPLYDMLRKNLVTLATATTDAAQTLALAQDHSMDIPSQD

Sequence of MDM2 (Q00987 2-138): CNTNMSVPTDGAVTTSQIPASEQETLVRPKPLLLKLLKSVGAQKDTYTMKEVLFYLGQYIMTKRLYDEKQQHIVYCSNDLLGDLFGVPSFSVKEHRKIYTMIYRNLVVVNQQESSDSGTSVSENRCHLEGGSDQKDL

| IC50 [1] | IC50 (MDM2) | IC50 (MDMX) | Compound |
| --- | --- | --- | --- |
| ≤ 1000 nM | 10 to 100 nM | 10 to 100 nM | O=C1N/C(=C\c2c[nH]c3cc(Cl)ccc23)C(=O)N1Cc1ccc(Cl)cc1 [Compound 2, (Z)-5-((6-chloro-1H-indol-3-yl)methylene)-3-(4-chlorobenzyl)imidazolidine-2,4-dione] |
| 1000 to 10000 nM | 10 to 100 nM | 10 to 100 nM | O=C1N/C(=C\c2c[nH]c3cc(Br)ccc23)C(=O)N1Cc1ccc(Cl)cc1 [Compound 5, (Z)-5-((6-bromo-1H-indol-3-yl)methylene)-3-(4-chlorobenzyl)imidazolidine-2,4-dione] |
|  | 10 to 100 nM | 10 to 100 nM | O=C1N/C(=C\c2c[nH]c3c(OCF)c(Cl)ccc23)C(=O)N1Cc1ccc(F)c(F)c1 [Compound 6, (Z)-5-((6-chloro-7-(fluoromethoxyl)-1H-indol-3-yl)methylene)-3-(3,4-difluorobenzyl)imidazolidine-2,4-dione] |
|  | 10 to 100 nM | 10 to 100 nM | O=C1N/C(=C\c2c[nH]c3c(Cl)c(Cl)ccc23)C(=O)N1Cc1ccc(F)c(F)c1 [Compound 7, (Z)-5-((6,7-dichloro-1H-indol-3-yl)methylene)-3-(3,4-difluorobenzyl)imidazolidine-2,4-dione] |
| 1000 to 10000 nM | 10 to 100 nM | 10 to 100 nM | COc1c(Cl)ccc2c(/C=C3\NC(=O)N(Cc4ccc(F)c(F)c4)C3=O)c[nH]c12 [Compound 8, (Z)-5-((6-chloro-7-methoxyl-1H-indol-3-yl)methylene)-3-(3,4-difluorobenzyl)imidazolidine-2,4-dione] |
| 1000 to 10000 nM | < 10 nM | 10 to 100 nM | N#Cc1ccc(CN2C(=O)N/C(=C\c3c[nH]c4c(OCF)c(Cl)ccc34)C2=O)cc1F [Compound 11, (Z)-4-((4-((6-chloro-7-(fluoromethoxyl)-1H-indol-3-yl)methylene)-2,5-dioxoimidazolidin-1-yl)methyl)-2-fluorobenzonitrile] |
| > 10000 nM | 10 to 100 nM | 10 to 100 nM | O=C1N/C(=C\c2c[nH]c3c(OCF)c(Cl)ccc23)C(=O)N1Cc1ccc(Cl)cc1 [Compound 12, (Z)-5-((6-chloro-7-(fluoromethoxyl)-1H-indol-3-yl)methylene)-3-(4-chlorobenzyl)imidazolidine-2,4-dione] |
| > 10000 nM | < 10 nM | 10 to 100 nM | N#Cc1ccc(CN2C(=O)N/C(=C\c3c[nH]c4c(OCF)c(Cl)ccc34)C2=O)cc1 [Compound 13, (Z)-4-((4-((6-chloro-7-(fluoromethoxyl)-1H-indol-3-yl)methylene)-2,5-dioxoimidazolidin-1-yl)methyl)benzonitrile] |
| ≤ 1000 nM | 10 to 100 nM | 10 to 100 nM | O=C1N/C(=C\c2c[nH]c3c(F)c(Cl)ccc23)C(=O)N1Cc1ccc(Cl)cc1 [Compound 15, (Z)-5-((6-chloro-7-fluoro-1H-indol-3-yl)methylene)-3-(4-chlorobenzyl)imidazolidine-2,4-dione] |
| ≤ 1000 nM | < 10 nM | < 10 nM | N#Cc1ccc(CN2C(=O)N/C(=C\c3c[nH]c4c(F)c(Cl)ccc34)C2=O)cc1 [Compound 16, (Z)-4-((4-((6-chloro-7-fluoro-1H-indol-3-yl)methylene)-2,5-dioxoimidazolidin-1-yl)methyl)benzonitrile] |

Second part, the molecule before the results:

| Compound | IC50 [1] | IC50 (MDM2) | IC50 (MDMX) |
| --- | --- | --- | --- |
| O=C1N/C(=C\c2c[nH]c3cc(Cl)ccc23)C(=O)N1Cc1ccc(F)c(F)c1 [Compound 1, (Z)-5-((6-chloro-1H-indol-3-yl)methylene)-3-(3,4-difluorobenzyl)imidazolidine-2,4-dione] | 1000 to 10000 nM | 10 to 100 nM | 10 to 100 nM |
| O=C1N/C(=C\c2c[nH]c3cc(Cl)ccc23)C(=O)N1Cc1ccc(F)cc1 [Compound 3, (Z)-5-((6-chloro-1H-indol-3-yl)methylene)-3-(4-fluorobenzyl)imidazolidine-2,4-dione] | ≤ 1000 nM | 10 to 100 nM | 10 to 100 nM |
| N#Cc1ccc(CN2C(=O)N/C(=C\c3c[nH]c4cc(Cl)ccc34)C2=O)cc1 [Compound 4, (Z)-4-((4-((6-chloro-1H-indol-3-yl)methylene)-2,5-dioxoimidazolidin-1-yl)methyl)benzonitrile] | ≤ 1000 nM | 10 to 100 nM | 10 to 100 nM |
| CSc1c(Cl)ccc2c(/C=C3\NC(=O)N(Cc4ccc(F)c(F)c4)C3=O)c[nH]c12 [Compound 9] | > 10000 nM | 10 to 100 nM | 10 to 100 nM |
| O=C1N/C(=C\c2c[nH]c3c(F)c(Cl)ccc23)C(=O)N1Cc1ccc(F)c(F)c1 [Compound 10, (Z)-5-((6-chloro-7-fluoro-1H-indol-3-yl)methylene)-3-(3,4-difluorobenzyl)imidazolidine-2,4-dione] | 1000 to 10000 nM | 10 to 100 nM | 10 to 100 nM |
| N#Cc1ccc(CN2C(=O)N/C(=C\c3c[nH]c4c(F)c(Cl)ccc34)C2=O)cc1F [Compound 14, (Z)-4-((4-((6-chloro-7-fluoro-1H-indol-3-yl)methylene)-2,5-dioxoimidazolidin-1-yl)methyl)-2-fluorobenzonitrile] | ≤ 1000 nM | < 10 nM | < 10 nM |
| O=C(NC(CO)CO)C(c1ccc(Cl)cc1)N1C(=O)N/C(=C\c2c[nH]c3cc(Cl)ccc23)C1=O (stereo not shown) [Compound 22, (Z)-2-(4-((6-chloro-1H-indol-3-yl)methylene)-2,5-dioxoimidazolidin-1-yl)-2-(4-chlorophenyl)-N-(1,3-dihydroxypropan-2-yl)acetamide] |  | < 10 nM | 10 to 100 nM |
| CCN(CC)CCNC(=O)C(c1ccc(Cl)cc1)N1C(=O)N/C(=C\c2c[nH]c3cc(Cl)ccc23)C1=O (stereo not shown) [Compound 23, (Z)-2-(4-((6-chloro-1H-indol-3-yl)methylene)-2,5-dioxoimidazolidin-1-yl)-2-(4-chlorophenyl)-N-(2-(diethylamino)ethyl)acetamide] |  | 10 to 100 nM | 10 to 100 nM |
| COc1c(Cl)ccc2c(/C=C3\NC(=O)N(C(C)c4ccc(F)c(F)c4)C3=O)c[nH]c12 (stereo not shown) [Compound 25, (Z)-5-((6-chloro-7-methoxyl-1H-indol-3-yl)methylene)-3-(1-(3,4-difluorophenyl)ethyl)imidazolidine-2,4-dione] |  | 10 to 100 nM | 10 to 100 nM |
| Cc1c(Cl)ccc2c(/C=C3\NC(=O)N(C(CO)c4ccc(F)c(F)c4)C3=O)c[nH]c12 (stereo not shown) [Compound 39, (Z)-5-((6-chloro-7-methyl-1H-indol-3-yl)methylene)-3-(1-(3,4-difluorophenyl)-2-hydroxyethyl)imidazolidine-2,4-dione] | 1000 to 10000 nM |  |  |
| Cc1c(Cl)ccc2c(/C=C3\NC(=O)N(C(COP(=O)(O)O)c4ccc(F)c(F)c4)C3=O)c[nH]c12 (stereo not shown) [Compound 43, (Z)-2-(4-((6-chloro-7-methyl-1H-indol-3-yl)methylene)-2,5-dioxoimidazolidin-1-yl)-2-(3,4-difluorophenyl)ethyl dihydrophosphate] |  | 10 to 100 nM | 10 to 100 nM |
| Cc1c(Cl)ccc2c(/C=C3\NC(=O)N(C(C(=O)NCCOP(=O)(O)O)c4ccc(F)c(F)c4)C3=O)c[nH]c12 (stereo not shown) [Compound 44, (Z)-2-(2-(4-((6-chloro-7-methyl-1H-indol-3-yl)methylene)-2,5-dioxoimidazolidin-1-yl)-2-(3,4-difluorophenyl)acetamido)dihydroethyl phosphate] |  | < 10 nM | < 10 nM |
| Cc1c(Cl)ccc2c(/C=C3\NC(=O)N(C(C(=O)NC(COP(=O)(O)O)COP(=O)(O)O)c4ccc(F)c(F)c4)C3=O)c[nH]c12 (stereo not shown) [Compound 74, (Z)-2-(2-(4-((6-chloro-7-methyl-1H-indol-3-yl)methylene)-2,5-dioxoimidazolidin-1-yl)-2-(3,4-difluorophenyl)acetamido)propane-1,3-diylbis(dihydrophosphate)] |  | > 100 nM | 10 to 100 nM |
| Cc1c(Cl)ccc2c(/C=C3\NC(=O)N(C(COP(=O)(O)O)c4ccc(C#N)cc4)C3=O)c[nH]c12 (stereo not shown) [Compound 92, (Z)-2-(4-((6-chloro-7-methyl-1H-indol-3-yl)methylene)-2,5-dioxoimidazolidin-1-yl)-2-(4-cyanophenyl)ethyl dihydrophosphate] |  | 10 to 100 nM | 10 to 100 nM |
| O=C1N/C(=C\c2c[nH]c3cc(Cl)ccc23)C(=O)N1[C@H](COP(=O)(O)O)c1ccc(F)c(F)c1 [Compound 94, (S,Z)-2-(4-((6-chloro-1H-indol-3-yl)methylene)-2,5-dioxoimidazolidin-1-yl)-2-(3,4-difluorophenyl)dihydroethyl phosphate] |  | < 10 nM | < 10 nM |
| O=C1N/C(=C\c2c[nH]c3cc(Cl)ccc23)C(=O)N1[C@@H](COP(=O)(O)O)c1ccc(F)c(F)c1 [Compound 95, (R,Z)-2-(4-((6-chloro-1H-indol-3-yl)methylene)-2,5-dioxoimidazolidin-1-yl)-2-(3,4-difluorophenyl)dihydroethyl phosphate] |  | 10 to 100 nM | 10 to 100 nM |
| O=C1N/C(=C\c2c[nH]c3c(F)c(Cl)ccc23)C(=O)N1C(CCO)c1ccc(Cl)cc1 (stereo not shown) [Compound 108, (Z)-5-((6-chloro-7-fluoro-1H-indol-3-yl)methylene)-3-(1-(4-chlorophenyl)-3-hydroxypropyl)imidazolidine-2,4-dione] | ≤ 1000 nM |  |  |
| O=C1N/C(=C\c2c[nH]c3c(F)c(Cl)ccc23)C(=O)N1C(CCCO)c1ccc(Cl)cc1 (stereo not shown) [Compound 109, (Z)-5-((6-chloro-7-fluoro-1H-indol-3-yl)methylene)-3-(1-(4-chlorophenyl)-4-hydroxybutyl)imidazolidine-2,4-dione] | ≤ 1000 nM |  |  |
